Experimental findings from paper PMC9000871, “Rhodamine 101 Conjugates of Triterpenoic Amides Are of Comparable Cytotoxicity as Their Rhodamine B Analogs” (Molecules, 2022) are described below.

Test [1] relates to HT29 (colon adenocarcinoma). The test is described as follows: SRB cytotoxicity assay, HT29. To be noted: Homo sapiens, HT-29, 72 h, 72 h of treatment, mean ± standard mean error. In kind it is cell-based, human. An excerpt:
(§1) The cell lines were obtained from Department of Oncology (Martin-Luther-University Halle Wittenberg; they were bought from ATCC; A 375 (CRL-1619), HT29 (HTB-38), MCF7 (HTM-22), A2780 (HTP-77), FaDu (HTP-43), NIH 3T3 (CRL-1658), HEK-293 (CRL-1573)). Cultures were maintained as monolayers in RPMI 1640 medium with L-glutamine (Capricorn Scientific GmbH, Ebsdorfergrund, Germany) supplemented with 10% heat inactivated fetal bovine serum (Sigma-Aldrich Chemie GmbH, Steinheim, Germany) and penicillin/streptomycin (1%, Capricorn Scientific GmbH, Ebsdorfergrund, Germany) at 37 °C in a humidified atmosphere with 5% CO2. The cytotoxicity of the compounds was evaluated using the sulforhodamine-B (Kiton-Red S, ABCR) micro culture colorimetric assay using confluent cells in 96-well plates with the seeding of the cells on day 0 applying appropriate cell densities to prevent confluence of the cells during the period of the experiment. On day 1, the cells were treated with six different concentrations (1, 3, 7, 12, 20, and 30 μM); thereby, the final concentration of DMSO was always <0.5%, generally regarded as non-toxic to the cells. On day 4, the supernatant medium was discarded; the cells were fixed with 10% trichloroacetic acid. After another day at 4 °C, the cells were washed in a strip washer and dyed with the SRB solution (100 μL, 0.4% in 1% acetic acid) for about 20 min to be followed by washing of the plates (four times, 1% acetic acid) and air-drying overnight. Furthermore, tris base solution (200 μL, 10 mM) was added to each well and absorbance was measured at λ = 570 nm employing a reader (96 wells, Tecan Spectra, Crailsheim, Germany). The EC50 values were averaged from three independent experiments performed each in triplicate calculated from semi logarithmic dose response curves applying a non-linear four-parameter Hills-slope equation (GraphPad Prism5; variables top and bottom were set to 100 and 0, respectively).
On the technique in general: In SRB staining, fixed cells bind dye roughly in proportion to their protein.

The subject of test [2] is NIH 3T3 (fibroblasts), non-malignant. Nature of the test: SRB cytotoxicity assay, NIH 3T3. Type of test: cell-based. To be noted: Mus musculus, NIH3T3, 72 h, 72 h of treatment, mean ± standard mean error.
Source text: as §1

Another test relates to A375 (melanoma). Nature of the test: SRB cytotoxicity assay, A375. In kind it is cell-based, human. To be noted: 72 h of treatment, mean ± standard mean error.
Source text: as §1

In test [3] the test system is MCF-7 (breast adenocarcinoma). The test is described as follows: SRB cytotoxicity assay, MCF-7. Type of test: cell-based. To be noted: Homo sapiens, MCF7, 72 h of treatment, mean ± standard mean error.
Source text: as §1

For test [4], the system named is A2780 (ovarian carcinoma). The test is described as follows: SRB cytotoxicity assay, A2780. To be noted: Homo sapiens, 72 h of treatment, mean ± standard mean error. In kind it is cell-based.
Source text: as §1

Another test relates to HeLa (cervical cancer). The test is described as follows: SRB cytotoxicity assay, HeLa. In kind it is cell-based. To be noted: Homo sapiens, 72 h of treatment, mean ± standard mean error.
Test [5] relates to HEK293 (human embryonic kidney), non-malignant. Nature of the test: SRB cytotoxicity assay, HEK293. In kind it is cell-based. To be noted: 72 h of treatment, mean ± standard mean error.
Source text: as §1

Test [6] relates to FaDu (hypopharyngeal carcinoma). The test is described as follows: SRB cytotoxicity assay, FaDu. In kind it is cell-based. To be noted: Homo sapiens, 72 h of treatment, mean ± standard mean error.
Source text: as §1

Test [7] has as its system human tumor cell lines (A375, HT29, MCF-7, A2780, FaDu). Nature of the test: SRB cytotoxicity assay, statements across the cell line panel. In kind it is cell-based. To be noted: span over all cell lines tested, cut-off of the assay 30 µM.
Source text: as §1, with “On day 1, the cells were treated with six different concentrations (1, 3, 7, 12, 20, and 30 μM); thereby, the final concentration of DMSO was always <0.5%, generally regarded as non-toxic to the cells. On day 4, the supernatant medium was discarded; the cells were fixed with 10% trichloroacetic acid. After another day at 4 °C, the cells were washed in a strip washer and dyed with the SRB solution (100 μL, 0.4% in 1% acetic acid) for about 20 min to be followed by washing of the plates (four times, 1% acetic acid) and air-drying overnight.” left out

As a reminder, the EC50 is the concentration needed to bring the measured effect to its halfway point. With `CC(=O)O[C@H]1CC[C@@]2(C)C(CC[C@]3(C)C2CCC2C4[C@H](C(C)=O)CC[C@]4(C(=O)N4CCCN(C(=O)c5ccccc5C5=c6cc7c8c(c6Oc6c5cc5c9c6CCCN9CCC5)CCC[N+]=8CCC7)CC4)CC[C@]23C)C1(C)C` (some centres unmarked) [compound 28], the EC50 stood at 0.35 ± 0.05 µM in [1]; 0.39 ± 0.05 µM in [2]; 0.2 ± 0.03 µM with A375 (melanoma) (Homo sapiens, A-375, 72 h); 0.2 ± 0.05 µM in test [3]; 0.17 ± 0.04 µM in test [4]; 310 ± 150 nM in the test with HeLa (cervical cancer). Further, the EC50 in [5] was determined as 120 ± 30 nM.

As for `CC(=O)O[C@H]1CC[C@@]2(C)C(CC[C@]3(C)C2CC=C2C4CC(C)(C)CC[C@]4(C(=O)N4CCCN(C(=O)c5ccccc5C5=c6cc7c8c(c6Oc6c5cc5c9c6CCCN9CCC5)CCC[N+]=8CCC7)CC4)CC[C@]23C)C1(C)C` (some centres unmarked) [compound 26], the EC50 was 0.13 ± 0.03 µM in test [1]; 0.26 ± 0.05 µM in test [2]; 0.07 ± 0.01 µM with A375 (melanoma) (Homo sapiens, A-375, 72 h); 0.12 ± 0.03 µM in [3]; 0.07 ± 0.03 µM in test [4]; 100 ± 50 nM with HeLa (cervical cancer). The molecule also had an EC50 in [5] of 50 ± 10 nM.

For the molecule `C=C(C)[C@@H]1CC[C@]2(C(=O)O)CC[C@]3(C)[C@H](CC[C@@H]4[C@@]5(C)CC[C@H](O)C(C)(C)[C@@H]5CC[C@]43C)[C@@H]12` [BA, betulinic acid, reference compound], the EC50 in [1] stood at 14.4 ± 2.3 µM; in test [2], 16.1 ± 1.4 µM; in the test with A375 (melanoma) (Homo sapiens, A-375, 72 h), 17.7 ± 0.4 µM; in [3], 10.2 ± 1.2 µM; in [4] it was 8.8 ± 0.9 µM; in test [6] it was 13.7 ± 0.9 µM.

Consider `CC(=O)O[C@H]1CC[C@@]2(C)C(CC[C@]3(C)C2CC=C2C4[C@@H](C)[C@H](C)CC[C@]4(C(=O)O)CC[C@]23C)C1(C)C` (stereo partly drawn) [compound 3, 3β-Acetyloxy-urs-12-en-oic Acid], for which the EC50 in test [1] was 17.3 ± 1.5 µM; in test [2], 16.4 ± 1.7 µM; in the test with A375 (melanoma) (Homo sapiens, A-375, 72 h), 11.4 ± 1.4 µM; in test [3], 12.1 ± 1.2 µM; in test [4], 8.3 ± 0.9 µM; in test [6], 10.7 ± 0.8 µM.

Take `CC(=O)O[C@H]1CC[C@@]2(C)C(CC[C@]3(C)C2CCC2C4[C@H](C(C)=O)CC[C@]4(C(=O)O)CC[C@]23C)C1(C)C` (stereo partly drawn) [compound 4, 3β-Acetyloxy-20-oxo-30-norlupan-28-oic Acid]: the EC50 in [1] is greater than 30 µM; in test [2], greater than 30 µM; in the test on A375 (melanoma) (Homo sapiens, A-375, 72 h) it was greater than 30 µM; in [3] it was greater than 30 µM; in [4], greater than 30 µM; in test [6], greater than 30 µM. In addition, in test [7], the “EC50 values across the cell lines” value is listed as “not cytotoxic at all within the limits of the assay”.

Consider `C=C(C)[C@@H]1CC[C@]2(C(=O)O)CC[C@]3(C)[C@H](CC[C@@H]4[C@@]5(C)CC[C@H](OC(C)=O)C(C)(C)[C@@H]5CC[C@]43C)[C@@H]12` [compound 1, 3β-Acetyloxy-lup-20(29)-en-28-oic Acid], for which the EC50 in test [1] is 21.3 ± 2 µM; in test [2], greater than 30 µM; in the test on A375 (melanoma) it was 19.2 ± 1.7 µM; in the test with A375 (melanoma) (Homo sapiens, A-375, 72 h) it was 21.3 µM; in [3], 11 ± 0.5 µM; in test [4], 18.3 ± 0.5 µM. For the same molecule, in test [6], the EC50 turned out to be 7.2 ± 1.2 µM.

Turning to `CC(=O)O[C@H]1CC[C@@]2(C)C(CC[C@]3(C)C2CC=C2C4[C@@H](C)[C@H](C)CC[C@]4(C(=O)N4CCCN(C(=O)c5ccccc5C5=c6cc7c8c(c6Oc6c5cc5c9c6CCCN9CCC5)CCC[N+]=8CCC7)CC4)CC[C@]23C)C1(C)C` (some centres unmarked) [compound 27], the EC50 in test [1] stood at 0.08 ± 0.02 µM; in test [2], 0.24 ± 0.03 µM; in the test with A375 (melanoma) (Homo sapiens, A-375, 72 h) it was 0.06 ± 0.04 µM; in [3], 0.08 ± 0.03 µM; in [4], 0.05 ± 0.02 µM; in the test on HeLa (cervical cancer) it was 90 ± 60 nM. In addition, the concentration for a half-maximal effect (EC50) in test [5] worked out at 40 ± 10 nM.
